Article doi:10.1101/2024.05.07.592940v1 (biorxiv, 2024)
Substitutions are numbered along the chain they refer to.

Legend:
PTPN2 [1] = target: T1, PTPN2 (Homo sapiens, UniProt P17706, C216G); assay: microscale thermophoresis; type: binding
T1 sequence (P17706 1-314 C216G): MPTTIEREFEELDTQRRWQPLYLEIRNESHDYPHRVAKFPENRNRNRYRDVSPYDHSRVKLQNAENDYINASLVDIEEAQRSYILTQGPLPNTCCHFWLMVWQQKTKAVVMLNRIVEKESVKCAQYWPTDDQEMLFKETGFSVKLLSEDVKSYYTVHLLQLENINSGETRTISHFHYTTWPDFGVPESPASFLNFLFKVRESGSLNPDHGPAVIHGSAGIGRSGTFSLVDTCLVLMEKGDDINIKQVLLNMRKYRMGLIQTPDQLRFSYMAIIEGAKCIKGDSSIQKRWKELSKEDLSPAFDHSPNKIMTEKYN

PTPN2 [2] = target: T2, PTPN2 (Homo sapiens, UniProt P17706); assay: pNPP hydrolysis, absorbance […] nm; type: biochemical
T2 sequence (P17706 1-314): T1 sequence (P17706 1-314 C216G) with G216C

PTP1B = target: T3, PTP1B (Homo sapiens, UniProt P18031); assay: pNPP hydrolysis, absorbance […] nm; type: biochemical
T3 sequence (P18031 1-321): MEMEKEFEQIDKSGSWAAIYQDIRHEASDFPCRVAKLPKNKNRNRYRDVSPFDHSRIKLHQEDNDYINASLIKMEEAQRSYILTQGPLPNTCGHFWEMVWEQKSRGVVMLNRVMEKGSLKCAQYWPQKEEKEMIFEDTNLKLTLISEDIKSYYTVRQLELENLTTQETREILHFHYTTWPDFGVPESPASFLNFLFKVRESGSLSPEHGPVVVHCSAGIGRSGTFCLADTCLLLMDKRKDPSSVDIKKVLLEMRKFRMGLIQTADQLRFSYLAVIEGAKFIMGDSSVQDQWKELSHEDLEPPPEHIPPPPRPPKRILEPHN

PTPN2 [3] = target: T2, PTPN2; assay: microscale thermophoresis; type: binding

Row | Compound | Kd (PTPN2 [1]) | IC50 (PTPN2 [2]) | IC50 (PTP1B) | Kd (PTPN2 [3])
1 | O=c1sn(CCOc2ccc([N+](=O)[O-])cc2)c(=O)n1Cc1ccccc1 [K73] | 31.6 µM | 0.324 µM | 4.27 µM | 0.646 µM
2 | O=c1sn(-c2cccc3ccccc23)c(=O)n1Cc1ccccc1 [NP-12] |  | 3.23 µM | 4.66 µM | 
